In general, EC50 refers to the midpoint of the concentration-response curve. Lower therefore signals an effect from little substance.

In assay [1] the test system is forskolin-stimulated accumulation of cAMP. The assay can be described thus: Cyclic AMP accumulation in intact cells (block of forskolin-stimulated accumulation of cAMP). It is filed as cell-based. To be noted: for EC50: 10 min, 37° C.; for Emax: relative to melatonin, read-out: I.A. (Intrinsic Activity) = Emax (experimental compound)/Emax (melatonin). The source says: Further, the compounds are agonists as determined by their ability, like melatonin, to block the forskolin-stimulated accumulation of cAMP in certain cells.
Measurement of Functional Activity
Cyclic AMP Accumalation in Intact Cells: Melatonin
Remove media from cell flask and wash with Hank's salt solution or PBS as appropriate. Detach cells from flask using whatever means are used when splitting. Add enough media so that the concentration of cells is 4×10^5 /ml when counted with a hemocytometer (40 cells in the center square). This concentration of cells can Vary depending on the ultimate cAMP response of the type of cells used. Also, dialyzed fetal bovine serum (FBS) or heat inactivated FBS should be used in the-media when plating the cells in case endogenous substances are present in the FBS that might interfere with the test. Add 1 ml of cell suspension to each well (4×10^5 cells/well), then 2 mls of media and incubate cells overnight.
SOLUTIONS needed for cyclase:
1. Stock solution: plain media (no serum or additives) +20mM HEPES. (500 ml bottle media+10 mls of 1M HEPES GIBCO stock). This solution can be refrigerated and reused.
2. IBMX solution: media/HEPES+1 mM IBMX. (50 mls+11.1 mg IBMX, IBMX mw=222.2). This solution can be refrozen.
3. Assay solution: 90% stock solution+10% IBMX solution. Figure out the volume of solution needed for the assay. Each well gets 3 mls of assay solution for a preincubation and 3 mls for the actual assay, therefore, 6 mls/well. Each test condition is done in triplicate.
a) Basal 7 mls assay solution +[…]
b) Forskolin Stimulation: […]: 7 mls assay solution +[…] (stock solution in freezer, in DMSO)
c) Forskolin+competitor (melatonin): […]: 7 mls assay solution +[…]+desired concentration of competitor (melatonin). Solutions b) and c) can be combined when adding forskolin, then split before adding competitor.
All solutions should be warmed to 37° C. All test conditions are done in triplicate. Plates with cells are kept in a shallow 37° C. water bath throughout the reaction. Remove media from the wells and add 3 ml of preincubation media. After 10 min, remove that solution and add 3 mls of drug solution. After 10 min the media is removed and reaction stopped with 1 ml 0.1N HCl. Staggering the incubation is recommended. The preincubation step can be eliminated if the cells don't adhere well to the plate or the plates can be pretreated with extracellular matrix such as poly-D-lysine. Let samples set for at least an hour at room temperature. Remove 1 ml from dish and put into a microfuge tube. Do a 3 min spin to remove floating cells. Dilute 1:100 for RIA (this dilution will vary depending on the concentration curve of the RIA kit and the cAMP response and concentration of the cells). Do radioimmunoassay (Amersham: Cat.no. RPA.509).

Assay [2] concerns [^125 I]-2-iodomelatonin binding. To be noted: comparative study; Copinga et al, J.Med. Chem., 1993, 36, 2891; cited from earlier work.
Assay [3] deals with rats. To be noted: exogenous melatonin administration, Cassone, et al., 1986; cited from earlier work.

On to `CCCC(=O)NCCCc1cccc(OC)c1` [Example 2, N-[3-(3-Methoxyphenyl)propyl]butanamide], for which, in assay [1], the EC50 is 4.9 nM and the Emax came to 95%. Regarding `COc1ccc(F)c(/C=C\CNC(=O)C(C)C)c1` [Example 7, cis-N-[3-(2-Fluoro-5-methoxyphenyl)-2-propenyl]-2-methylpropanamide], in assay [1], a half-maximal response (EC50) required 120 nM and the Emax worked out at 120%. For `COc1cc(CCCNC(=O)C2CC2)ccc1Cl` [Example 30, N-[3-(4-Chloro-3-methoxyphenyl)propyl]-cyclopropane carboxamide] the same measures were 3.4 nM and 98%. As to `COc1cccc(CCNC(C)=O)c1` [compound 10], the “[125I]-2-iodomelatonin binding properties, in words” value in assay [2] is “markedly inferior”. `COc1ccc2[nH]cc(CCNC(C)=O)c2c1` [melatonin, N-acetyl-5-methoxytryptamine]: the “synchronization of circadian rhythms” value in assay [3] was “found to synchronize circadian rhythms in rats”.
